Measured values taken from PMC5442318, “Hundreds of dual-stage antimalarial molecules discovered by a functional gametocyte screen” (Nature Communications, 2017).

Assays:
[1] = test system: P. falciparum stage V female gametocytes; experiment: P. falciparum female gametocyte activation assay (Pf FGAA), 24 h or 48 h preincubation, Pfs25 expression readout; assay type: cell-based, Plasmodium falciparum NF54; details: P. falciparum female gametocytes; mean; read-out: Gametocytes mean Pf FGAA IC50
Method in brief: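 Female activation, triggered by xanthurenic acid and cooling, was scored by imaging Cy3-labelled anti-Pfs25 female gametes after 24 h at 26 °C. Beforehand, purified NF54 stage V gametocytes had been incubated with compound for either 24 h or 48 h (37 °C, 3% O2). Values are pIC50 from full-curve regression.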

[2] = test system: P. falciparum stages IV–V gametocytes; experiment: Gametocytocidal ATP-depletion assay (gametocyte ATP bioluminescence); assay type: cell-based, Plasmodium falciparum
Method in brief: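 Read-out is luciferase luminescence of parasite ATP (BacTiter-Glo), standing in for viability. Double-purified mature stage IV–V gametocytes, 12,500 per well, were exposed 48 h at 37 °C in low-O2 gas; screening concentration 2 μM.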

[3] = test system: HepG2 cells; experiment: HepG2 cytotoxicity assay; assay type: cell-based; details: HepG2 cells; mean
Method in brief: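 Luminescent read-out (CellTiter-Glo) taken 10 min after reagent addition at RT; plates and reagent pre-equilibrated 30 min at RT.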

[4] = test system: P. falciparum asexual blood stages; details: TCAMS asexual blood stage data; ref 1 (Gamo, F. J. et al., Nature 465, 305-310, 2010); read-out: Pf Asexual blood stages XC50; cited from earlier work

SMILES	IC50 [1]	Gametocytes mean ATP inhibition at 2µM [2]	HepG2 cells mean TOX50 [3]	IC50 [4]
CCN(CC)/C(=N/C(=N)NCc1ccc(Cl)cc1Cl)NCCCCCCN/C(=N\C(=N)NCc1ccc(Cl)cc1Cl)N(CC)CC [TCMDC-131819]	4.75 µM	65.32%	36.73 µM	0.22 µM
CCCCN(CCCC)/C(=N/C(=N)NCc1ccc(Cl)c(Cl)c1)NCCCCCCN/C(=N\C(=N)NCc1ccc(Cl)c(Cl)c1)N(CCCC)CCCC [TCMDC-131821]	2.51 µM	63.54%	13.96 µM	0.4 µM
COc1cc2nc(NCCCN3CCCCC3)nc(NCc3ccccc3)c2cc1OC [TCMDC-132012]	0.9 µM	19.39%	6.84 µM	1 µM
Br.CCc1c(CCNCCCCCCNCCc2ccc(Br)cc2)ccc(O)c1O [TCMDC-132044]	1.3 µM	6.14%	7.96 µM	0.9 µM
CCc1c(CCNCCCCCCNC(C)Cc2ccc3c(c2CC)OCO3)ccc(OC)c1OC.Cl (stereo not drawn) [TCMDC-132052]	0.48 µM	35.74%	2.46 µM	0.87 µM
Cc1c2ccncc2c(C)c2c1[nH]c1cc(Cc3ccccc3)c(O)cc12 [TCMDC-132053]	1.09 µM	-3.89%	1.23 µM	0.15 µM
CCc1c(CCNCCCCCCNC(C)(C)Cc2ccc3c(c2CC)OCO3)ccc(OC)c1OC.Cl [TCMDC-132055]	1.22 µM	19.03%	4.27 µM	0.93 µM
CCc1c(CCNC/C=C/C=C/CNCCc2ccc(OC)c(OC)c2CC)ccc(OC)c1OC.Cl [TCMDC-132061]	2.56 µM	13.62%	4.68 µM	0.97 µM
CCc1c(CCNCCCCCNCCc2ccc(OC)c(OC)c2CC)ccc(OC)c1OC.Cl [TCMDC-132064]	2.05 µM	27.40%	4.68 µM	1.11 µM
CCc1c(CCNCCCCCCNCCc2ccc([N+](=O)[O-])cc2)ccc(OC)c1OC.Cl [TCMDC-132066]	1.46 µM	24.70%	4.57 µM	0.73 µM
Nc1c(Cl)cc(C(O)CNCCCCCOCCCc2ccc(O)c3ncccc23)cc1Cl.O=C(O)/C=C/C(=O)O (stereo not drawn) [TCMDC-132088]	2.1 µM	76.89%	7.76 µM	0.99 µM
CCc1c(CCNCCCCCCNCCc2ccc3c(c2C)OCO3)ccc2c1OCO2.Cl [TCMDC-132093]	1.02 µM	10.41%	3.89 µM	0.61 µM
CN(C)Cc1cccc2nc(-c3csc(Cc4cc(Cl)ccc4OCc4ccccc4)n3)[nH]c12 [TCMDC-132174]	2.1 µM	47.80%	13.04 µM	1.12 µM
O=C(O)C(F)(F)F.O=S(=O)(NCCN1CCCC1)c1ccc(-c2cccc(CNC3Cc4ccccc4C3)c2)cc1 [TCMDC-132215]	2.54 µM	9.62%	6.03 µM	0.62 µM
O=C(O)C(F)(F)F.O=S(=O)(NCCN1CCCC1)c1ccc(-c2ccc(CNC3Cc4ccccc4C3)cc2)s1 [TCMDC-132234]	2.27 µM	1.19%	5.83 µM	0.59 µM
O=C(O)C(F)(F)F.O=S(=O)(NCCN1CCCC1)c1cccc(-c2ccc(CNC3Cc4ccccc4C3)cc2)c1 [TCMDC-132241]	3.1 µM	3.92%	6.46 µM	0.66 µM
Cc1cc(-c2ccc(CNC3Cc4ccccc4C3)cc2)ccc1S(=O)(=O)NCCN1CCCC1.O=C(O)C(F)(F)F [TCMDC-132243]	1.83 µM	16.13%	5.31 µM	0.7 µM
COc1ccc(CNC2Cc3ccccc3C2)cc1-c1ccc(S(=O)(=O)NCCN2CCCC2)cc1.O=C(O)C(F)(F)F [TCMDC-132248]	1.99 µM	20.60%	5.89 µM	0.58 µM
COc1ccc(CNC2Cc3ccccc3C2)cc1-c1ccc(OC)c(S(=O)(=O)NCCN2CCCC2)c1.O=C(O)C(F)(F)F [TCMDC-132251]	2.7 µM	24.03%	7.17 µM	0.77 µM
COc1ccc(CNC2CCN(C)CC2)cc1-c1ccc(S(=O)(=O)NCc2ccccc2)s1.O=C(O)C(F)(F)F [TCMDC-132253]	1.75 µM	-2.80%	5.50 µM	0.23 µM
COc1ccc(CNC2Cc3ccccc3C2)cc1-c1ccc(S(=O)(=O)NCCN2CCCC2)s1.O=C(O)C(F)(F)F [TCMDC-132258]	1.39 µM	59.91%	5.31 µM	0.19 µM
COc1ccc(CNC2Cc3ccccc3C2)cc1-c1ccc(S(=O)(=O)NCCN2CCCC2)c(F)c1.O=C(O)C(F)(F)F [TCMDC-132266]	1.95 µM	7.12%	6.03 µM	0.72 µM
Cl.N[C@@H](CCNC1CCN(c2cccc(C(F)(F)F)c2)CC1)Cc1ccc(F)c(F)c1 [TCMDC-132301]	0.44 µM	70.53%	3.76 µM	1.28 µM
Cc1ccc(Cn2nc(N3CCNCC3)ccc2=O)cc1NC(=O)Nc1ccc(-c2ccccc2)cc1.O=C(O)C(F)(F)F [TCMDC-132580]	1.94 µM	1.45%	7.42 µM	0.84 µM
O=S(=O)(Nc1cccc(F)c1CNCc1ccccn1)c1ccc(Cl)c(Cl)c1 [TCMDC-132598]	1.36 µM	51.32%	20.42 µM	0.89 µM
NCc1ccc(CNCc2cccc(-c3ccc(-c4nc5cc(C(F)(F)F)ccc5[nH]4)cc3)c2)cc1.O=C(O)C(F)(F)F [TCMDC-132811]	0.83 µM	-6.09%	14.65 µM	0.26 µM
NCc1ccc(CNCc2ccc(-c3ccc(-c4nc5cc(C(F)(F)F)ccc5[nH]4)s3)cc2)cc1.O=C(O)C(F)(F)F [TCMDC-132814]	1.02 µM	6.11%	8.32 µM	0.16 µM
CNCCNCc1ccc(-c2ccc(-c3nc4cc(C(F)(F)F)ccc4[nH]3)s2)cc1.O=C(O)C(F)(F)F [TCMDC-132838]	1.28 µM	-8.87%	6.10 µM	0.6 µM
FC(F)(F)c1ccc2[nH]c(-c3ccc(-c4ccc(CNCCN5CCNCC5)cc4)s3)nc2c1.O=C(O)C(F)(F)F [TCMDC-132862]	3 µM	-0.18%	12.88 µM	0.91 µM
FC(F)(F)c1ccc2[nH]c(-c3ccc(-c4cccc(CNCCN5CCNCC5)c4)cc3)nc2c1.O=C(O)C(F)(F)F [TCMDC-132864]	1.71 µM	10.30%	12.31 µM	1.03 µM
